# “And” between values parts separate entries of the source, which are not always exact repeats. Identical values can stand only once. The source made the active and inactive calls.
# Tests used:
# [1] = target: Cytochrome P450 3A4 (Homo sapiens, UniProt P08684);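 further: CYP3A4 tested as one member of a cytochrome P450 panel screen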
# [2] = target: Cytochrome P450 2C19 (Homo sapiens, UniProt P33261); assay: Cytochrome panel assay with activity outcomes. Panel member name: p450-cyp2c19 Compounds with AC50 equal or less than 10 uM are considered active; assay type: functional; settings: read-out: AC50
# Sequence of Cytochrome P450 2C19 (P33261 whole entry): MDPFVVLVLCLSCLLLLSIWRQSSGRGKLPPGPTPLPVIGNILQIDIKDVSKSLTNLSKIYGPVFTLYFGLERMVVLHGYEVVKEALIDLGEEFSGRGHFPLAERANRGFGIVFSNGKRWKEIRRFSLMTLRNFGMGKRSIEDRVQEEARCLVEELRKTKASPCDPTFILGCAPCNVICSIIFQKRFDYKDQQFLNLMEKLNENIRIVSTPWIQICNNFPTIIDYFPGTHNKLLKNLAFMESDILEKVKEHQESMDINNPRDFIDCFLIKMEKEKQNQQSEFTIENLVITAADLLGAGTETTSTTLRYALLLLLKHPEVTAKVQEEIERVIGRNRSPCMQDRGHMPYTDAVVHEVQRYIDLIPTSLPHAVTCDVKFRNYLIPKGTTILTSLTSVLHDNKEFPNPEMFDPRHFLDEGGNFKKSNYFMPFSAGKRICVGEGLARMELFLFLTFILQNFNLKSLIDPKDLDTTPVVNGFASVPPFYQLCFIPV
# [3] = Luminescence Cell-Based Dose Confirmation HTS to Identify Inhibitors of Platelet Dense Granule Release. [Related pubchem assays: 1663 (Primary HTS), 1678 (Summary of Project)]; assay type: functional
# [4] = target: Cytochrome P450 2C9 (Homo sapiens, UniProt P11712)
# Sequence of Cytochrome P450 2C9 (P11712 whole entry): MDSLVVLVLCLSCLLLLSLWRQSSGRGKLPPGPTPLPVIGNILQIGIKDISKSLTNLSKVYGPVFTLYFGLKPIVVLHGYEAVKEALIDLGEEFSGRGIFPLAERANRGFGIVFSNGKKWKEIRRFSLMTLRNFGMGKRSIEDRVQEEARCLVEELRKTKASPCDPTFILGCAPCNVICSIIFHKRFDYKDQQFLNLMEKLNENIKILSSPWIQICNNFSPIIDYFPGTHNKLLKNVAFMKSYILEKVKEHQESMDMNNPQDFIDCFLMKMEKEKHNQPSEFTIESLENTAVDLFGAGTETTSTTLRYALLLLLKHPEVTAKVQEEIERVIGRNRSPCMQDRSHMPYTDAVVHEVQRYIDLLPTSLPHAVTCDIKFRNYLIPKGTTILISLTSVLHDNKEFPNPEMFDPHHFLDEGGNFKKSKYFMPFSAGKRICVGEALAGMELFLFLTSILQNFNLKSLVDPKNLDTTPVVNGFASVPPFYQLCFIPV
# [5] = target: Luciferin 4-monooxygenase (Photinus pyralis, UniProt P08659); assay: inhibition of purified Photinus pyralis luciferase – biochemical, luminescence, dose response (AID 1891)
# Sequence of Luciferin 4-monooxygenase (P08659 whole entry): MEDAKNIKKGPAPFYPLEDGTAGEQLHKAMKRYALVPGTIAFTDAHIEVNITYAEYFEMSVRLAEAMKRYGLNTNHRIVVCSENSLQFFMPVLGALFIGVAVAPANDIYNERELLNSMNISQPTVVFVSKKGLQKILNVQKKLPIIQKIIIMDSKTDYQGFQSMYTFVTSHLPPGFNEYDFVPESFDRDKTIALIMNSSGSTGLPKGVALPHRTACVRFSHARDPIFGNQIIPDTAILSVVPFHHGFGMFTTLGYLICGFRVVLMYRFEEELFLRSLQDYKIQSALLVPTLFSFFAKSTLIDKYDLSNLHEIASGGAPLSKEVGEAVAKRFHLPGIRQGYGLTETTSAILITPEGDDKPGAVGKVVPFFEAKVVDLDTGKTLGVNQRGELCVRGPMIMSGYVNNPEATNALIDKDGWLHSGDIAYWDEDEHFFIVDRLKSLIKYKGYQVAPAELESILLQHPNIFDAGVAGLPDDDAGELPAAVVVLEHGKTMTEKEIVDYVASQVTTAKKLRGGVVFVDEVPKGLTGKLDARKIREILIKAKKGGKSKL
# [6] = target: T1, Nuclear receptor subfamily 0 group B member 1 (Homo sapiens, UniProt P51843); assay type: functional, cell-based;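 further: HEK293T cells transfected with SF-1 and DAX-1 plus StAR promoter luciferase reporter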
# T1 sequence (P51843 whole entry): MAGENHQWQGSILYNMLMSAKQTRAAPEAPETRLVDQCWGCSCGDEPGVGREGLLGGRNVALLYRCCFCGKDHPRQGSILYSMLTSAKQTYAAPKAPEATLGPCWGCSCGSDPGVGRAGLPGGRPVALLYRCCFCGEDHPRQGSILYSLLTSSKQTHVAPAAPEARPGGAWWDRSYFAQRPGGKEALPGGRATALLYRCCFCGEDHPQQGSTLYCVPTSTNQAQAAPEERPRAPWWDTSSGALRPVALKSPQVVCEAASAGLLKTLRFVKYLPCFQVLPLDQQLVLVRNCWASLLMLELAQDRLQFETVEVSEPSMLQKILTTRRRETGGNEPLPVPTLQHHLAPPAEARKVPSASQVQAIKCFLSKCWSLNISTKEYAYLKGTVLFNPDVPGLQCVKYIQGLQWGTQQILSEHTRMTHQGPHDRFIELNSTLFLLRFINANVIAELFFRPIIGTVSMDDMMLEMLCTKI
# [7] = cells; assay type: functional, cell-based
# [8] = target: Paired box protein Pax-8 (Homo sapiens, UniProt Q06710); assay: PAX8 transcriptional activity inhibition in RMG-I – RMG-I cells, luciferase, cherry-pick, dose response (AID 687027); assay type: functional, cell-based;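 further: luciferase reporter driven by Pax8 target thyroperoxidase promoter measured by SteadyGlo luminescence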
# Sequence of Paired box protein Pax-8 (Q06710 whole entry): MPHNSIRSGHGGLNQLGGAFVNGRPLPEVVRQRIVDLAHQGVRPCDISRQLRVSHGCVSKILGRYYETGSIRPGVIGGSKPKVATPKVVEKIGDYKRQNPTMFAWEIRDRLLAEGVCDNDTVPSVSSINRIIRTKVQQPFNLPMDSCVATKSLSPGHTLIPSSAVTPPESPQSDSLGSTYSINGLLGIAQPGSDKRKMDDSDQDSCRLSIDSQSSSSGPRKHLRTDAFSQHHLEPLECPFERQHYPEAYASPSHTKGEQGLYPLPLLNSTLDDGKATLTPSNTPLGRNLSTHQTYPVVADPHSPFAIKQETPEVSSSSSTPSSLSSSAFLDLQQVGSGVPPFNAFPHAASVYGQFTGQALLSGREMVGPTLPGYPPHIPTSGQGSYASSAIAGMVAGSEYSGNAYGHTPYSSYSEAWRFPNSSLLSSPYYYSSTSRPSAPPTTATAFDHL
# [9] = test system: Vero; assay: cells; assay type: functional; settings: Chlorocebus sabaeus
# [10] = target: T2, Short transient receptor potential channel 4 (Mus musculus, UniProt Q9QUQ5); assay: calcium entry via TRPC4 opening agents – cell-based, HEK293 TRPC4/mu-opioid, Fluo-4 calcium, dose response (AID 434937); assay type: functional
# T2 sequence (Q9QUQ5 whole entry): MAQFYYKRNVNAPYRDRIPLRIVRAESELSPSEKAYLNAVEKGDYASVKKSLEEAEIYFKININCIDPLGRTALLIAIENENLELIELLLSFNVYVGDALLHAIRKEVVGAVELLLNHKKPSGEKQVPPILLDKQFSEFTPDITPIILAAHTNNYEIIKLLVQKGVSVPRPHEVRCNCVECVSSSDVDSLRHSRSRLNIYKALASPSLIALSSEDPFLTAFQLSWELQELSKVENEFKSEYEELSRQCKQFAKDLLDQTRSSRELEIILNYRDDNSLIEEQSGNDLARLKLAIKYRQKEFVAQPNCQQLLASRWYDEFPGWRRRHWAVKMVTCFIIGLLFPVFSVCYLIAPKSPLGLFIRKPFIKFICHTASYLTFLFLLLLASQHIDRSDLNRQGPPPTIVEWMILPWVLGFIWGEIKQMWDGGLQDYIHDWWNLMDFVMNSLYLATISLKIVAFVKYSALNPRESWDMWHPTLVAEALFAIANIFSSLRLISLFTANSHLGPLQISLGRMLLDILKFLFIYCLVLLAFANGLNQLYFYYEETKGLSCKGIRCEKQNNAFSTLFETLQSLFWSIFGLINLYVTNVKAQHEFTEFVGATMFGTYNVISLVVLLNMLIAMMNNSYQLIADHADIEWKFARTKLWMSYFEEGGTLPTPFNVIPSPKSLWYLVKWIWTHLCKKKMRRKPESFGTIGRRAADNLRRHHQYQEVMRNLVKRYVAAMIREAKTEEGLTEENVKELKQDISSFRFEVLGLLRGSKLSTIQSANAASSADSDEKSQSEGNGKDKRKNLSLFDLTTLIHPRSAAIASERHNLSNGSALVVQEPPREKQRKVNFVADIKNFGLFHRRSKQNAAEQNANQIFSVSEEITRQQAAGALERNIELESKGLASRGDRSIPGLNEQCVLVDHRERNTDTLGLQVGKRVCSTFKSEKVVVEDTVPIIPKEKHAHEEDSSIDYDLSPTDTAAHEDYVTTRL
# [11] = non-specific 3'UTR reporter inhibition in Clone20-Shn3RL – cell-based, Renilla luciferase, cherry-picked, counter-screen for Shn3 inhibitor project, dose response (AID 624133); assay type: functional
# [12] = target: Heat shock protein HSP 90-alpha (Homo sapiens, UniProt P07900); assay type: functional, organism-based
# [13] = reduction of Shn3 3'UTR-driven luciferase in osteoblasts – cell-based, Clone20 osteoblasts, firefly luciferase, cherry-picked, dose response (AID 624132); assay type: functional;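 further: firefly luciferase luminescence from reporter carrying the Shn3 3'UTR in osteoblasts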
# [14] = loss of viability in HepG2 cells – cell-based, CellTiter-Glo, cherry-picked, cytotoxicity control for Shn3 inhibitor project, dose response (AID 624134); assay type: functional
# [15] = target: Large T antigen (Simian virus 40, UniProt P03070); assay type: functional, Betapolyomavirus macacae;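 further: Confirmatory-stage PubChem screen for compounds that inhibit SV40 T antigen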
# Sequence of Large T antigen (P03070 whole entry): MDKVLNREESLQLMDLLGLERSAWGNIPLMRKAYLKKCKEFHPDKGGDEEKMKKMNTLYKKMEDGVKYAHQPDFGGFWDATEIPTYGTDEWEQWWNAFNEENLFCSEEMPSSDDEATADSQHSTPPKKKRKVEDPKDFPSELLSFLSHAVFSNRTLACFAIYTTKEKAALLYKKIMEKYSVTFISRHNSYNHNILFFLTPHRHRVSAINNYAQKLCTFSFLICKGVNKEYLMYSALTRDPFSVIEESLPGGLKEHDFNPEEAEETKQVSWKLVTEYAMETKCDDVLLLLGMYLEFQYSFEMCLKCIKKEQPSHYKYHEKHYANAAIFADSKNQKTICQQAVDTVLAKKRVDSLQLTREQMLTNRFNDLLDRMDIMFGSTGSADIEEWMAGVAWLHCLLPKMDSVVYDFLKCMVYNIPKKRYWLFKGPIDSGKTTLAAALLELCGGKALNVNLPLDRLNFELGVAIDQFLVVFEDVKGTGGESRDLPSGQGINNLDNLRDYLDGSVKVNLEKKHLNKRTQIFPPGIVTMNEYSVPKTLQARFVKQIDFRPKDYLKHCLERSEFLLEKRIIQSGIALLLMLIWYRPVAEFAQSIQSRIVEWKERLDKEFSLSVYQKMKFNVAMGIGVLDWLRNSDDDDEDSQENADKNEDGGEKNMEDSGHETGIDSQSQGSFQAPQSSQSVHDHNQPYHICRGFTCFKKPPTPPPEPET
# [16] = target: T3, Apoptotic protease-activating factor 1 (Homo sapiens, UniProt O14727); assay type: functional
# T3 sequence (O14727 whole entry): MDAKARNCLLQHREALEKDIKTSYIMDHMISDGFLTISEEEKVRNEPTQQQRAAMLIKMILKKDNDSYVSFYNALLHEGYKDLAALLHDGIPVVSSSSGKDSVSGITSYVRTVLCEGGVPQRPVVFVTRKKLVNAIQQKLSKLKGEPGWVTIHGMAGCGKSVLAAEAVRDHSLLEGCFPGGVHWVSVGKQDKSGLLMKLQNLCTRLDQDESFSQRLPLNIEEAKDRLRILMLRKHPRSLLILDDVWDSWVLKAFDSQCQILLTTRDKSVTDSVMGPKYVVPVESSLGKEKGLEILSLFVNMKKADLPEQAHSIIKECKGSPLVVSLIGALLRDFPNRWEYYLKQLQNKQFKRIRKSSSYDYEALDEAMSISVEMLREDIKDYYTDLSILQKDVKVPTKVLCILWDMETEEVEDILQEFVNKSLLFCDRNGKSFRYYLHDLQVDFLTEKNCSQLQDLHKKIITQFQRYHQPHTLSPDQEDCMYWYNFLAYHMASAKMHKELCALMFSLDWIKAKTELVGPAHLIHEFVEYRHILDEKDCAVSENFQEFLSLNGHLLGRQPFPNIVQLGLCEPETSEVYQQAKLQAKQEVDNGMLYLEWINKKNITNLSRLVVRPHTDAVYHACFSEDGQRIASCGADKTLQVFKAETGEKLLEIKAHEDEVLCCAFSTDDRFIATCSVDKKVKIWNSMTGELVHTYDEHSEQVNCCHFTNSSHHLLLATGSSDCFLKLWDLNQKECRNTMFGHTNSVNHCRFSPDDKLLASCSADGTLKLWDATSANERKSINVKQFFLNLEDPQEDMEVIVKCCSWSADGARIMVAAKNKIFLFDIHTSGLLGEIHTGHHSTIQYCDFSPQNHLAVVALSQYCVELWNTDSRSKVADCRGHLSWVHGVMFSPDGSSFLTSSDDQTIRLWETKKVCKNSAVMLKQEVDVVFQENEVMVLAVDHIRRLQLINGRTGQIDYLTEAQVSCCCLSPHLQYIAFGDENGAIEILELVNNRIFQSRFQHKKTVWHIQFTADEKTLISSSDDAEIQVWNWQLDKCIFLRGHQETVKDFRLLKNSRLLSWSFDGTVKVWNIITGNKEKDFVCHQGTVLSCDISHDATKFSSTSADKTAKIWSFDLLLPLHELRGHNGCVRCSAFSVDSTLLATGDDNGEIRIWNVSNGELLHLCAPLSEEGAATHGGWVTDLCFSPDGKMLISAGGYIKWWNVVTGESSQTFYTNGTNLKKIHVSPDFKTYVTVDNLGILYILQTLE
# [17] = target: T2, Short transient receptor potential channel 4; assay: block of DAMGO-driven TRPC4 calcium entry – cell-based, HEK293 TRPC4/mu-opioid, Fluo-4 calcium, dose response (AID 434942); assay type: functional;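 further: potency of inhibitors blocking the TRPC4 calcium response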
# Sequence of Cytochrome P450 3A4 (P08684 whole entry): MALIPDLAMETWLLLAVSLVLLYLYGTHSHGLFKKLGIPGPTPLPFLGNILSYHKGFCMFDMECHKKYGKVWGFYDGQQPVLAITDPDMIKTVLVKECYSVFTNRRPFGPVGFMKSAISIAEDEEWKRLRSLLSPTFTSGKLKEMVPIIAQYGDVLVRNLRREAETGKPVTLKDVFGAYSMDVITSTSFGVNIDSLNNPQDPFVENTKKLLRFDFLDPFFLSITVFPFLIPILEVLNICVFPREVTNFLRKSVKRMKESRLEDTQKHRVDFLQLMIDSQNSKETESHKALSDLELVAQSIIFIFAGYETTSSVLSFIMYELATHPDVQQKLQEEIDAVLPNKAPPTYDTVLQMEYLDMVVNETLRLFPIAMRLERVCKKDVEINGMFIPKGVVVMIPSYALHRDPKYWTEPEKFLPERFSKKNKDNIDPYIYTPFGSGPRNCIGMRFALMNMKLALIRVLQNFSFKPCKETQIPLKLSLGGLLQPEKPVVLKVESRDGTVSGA
smiles,measurement,setting,value
COc1ccc(S(N)(=O)=O)cc1C(=O)NCCCN1CCN(c2cccc(Cl)c2)CC1.CS(=O)(=O)O,AC50,[1],inconclusive
same,AC50,[2],14.1 µM (inconclusive)
same,EC50,[3],> 56.1 µM (not active)
same,AC50,[4],100 nM (inconclusive)
same,EC50,[5],> 112 µM (not active)
O=C(NCc1ccccc1)c1ccc2c(c1)C(=O)N(CC1CCCO1)C2=O (configuration not stated),AC50,[1],inconclusive
CC(=O)O[C@]1(C(C)=O)CC[C@@H]2[C@@H]3C=C(Cl)C4=CC(=O)[C@H]5C[C@@H]5[C@]4(C)[C@H]3CC[C@]21C,AC50,[1],inconclusive
same,AC50,[4],15.8 µM (inconclusive) and 31.6 µM (inconclusive)
COc1c(C=O)c2c(c(OC)c1OC)-c1ccc(OC)c(=O)cc1C(NC(C)=O)CC2 (configuration not stated),IC50,[6],> 67.5 µM (inactive)
same,IC50,[7],> 67.5 µM (inactive)
same,AC50,[8],< 0.26 µM (active)
NCCSc1c(-c2ccc(Cl)cc2)[nH]c2ccccc12,CC50,[9],> 25 µM (active)
same,EC50,[10],4.73 µM (active)
Cn1cccc1C(=O)N1CCC2(CCN(C(=O)Nc3ccccc3)CC2)CC1,AC50,[1],inconclusive
O=C(OCc1ccccc1)c1ccc(NCc2cc(O)ccc2O)cc1,AC50,[11],3.87 µM (active)
same,AC50,[12],8.63 µM (active)
same,AC50,[13],0.711 µM (active)
same,AC50,[14],22 µM (active)
COc1cc(-c2c(C#N)c(O)nc3c2c(C)nn3-c2ccccc2)ccc1O,IC50,[15],> 100 µM (active)
same,IC50,[16],20.5 µM (active)
Cc1ccc(COn2c(-c3ccc(Cl)cc3Cl)nc3ncccc32)cc1,EC50,[17],0.473 µM (active)
same,EC50,[10],0.749 µM (active)

# From ChEMBL document CHEMBL1201862, “PubChem BioAssay data set” (2004)
